Consider four compounds from paper doi:10.1101/2022.12.01.518659v1 (biorxiv, 2022).

pIC50: −log10 of the molar value. Where a name gives a salt, the structure may show the parent alone.

The target of this experiment is Atx3 13Q (Homo sapiens, UniProt P54252, OF/POLYQ/Q/TRACT). Description: ThT fluorescence aggregation assay. In kind it is biochemical.
Atx3 13Q, sequence (P54252 whole entry, change not shown): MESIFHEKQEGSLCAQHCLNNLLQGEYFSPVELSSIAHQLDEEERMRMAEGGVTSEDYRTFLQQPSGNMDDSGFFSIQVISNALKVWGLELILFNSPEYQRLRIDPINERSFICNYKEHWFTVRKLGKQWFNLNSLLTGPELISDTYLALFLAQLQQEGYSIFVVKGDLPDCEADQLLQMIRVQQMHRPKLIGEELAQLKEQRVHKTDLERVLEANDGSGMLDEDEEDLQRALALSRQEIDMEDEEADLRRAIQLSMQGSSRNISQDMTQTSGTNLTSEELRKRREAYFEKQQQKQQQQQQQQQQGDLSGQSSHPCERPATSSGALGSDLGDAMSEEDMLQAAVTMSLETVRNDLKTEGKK
`Cc1ccc(C(=O)c2cc(O)c(O)c([N+](=O)[O-])c2)cc1` [tolcapone] gave a pIC50 of 7.70.
On to `Cc1cc(C2CCCCC2)n(O)c(=O)c1` [ciclopirox ethanolamine], for which the negative logarithm of the IC50 (pIC50) was 7.10.
`O=C(O)CN(CCN(CC(=O)O)CC(=O)O)CCN(CC(=O)O)CC(=O)O` [pentetic acid] gave a pIC50 of 6.92.
`NCCc1ccc(O)c(O)c1` [dopamine hydrochloride] gave a pIC50 of 6.96.

A word on the pIC50: it is the negative decadic logarithm of the IC50, by convention in mol/L. A low value points to a high IC50.
